For data set [1], the target named is T1, Melanin-concentrating hormone receptor 1 (Homo sapiens, UniProt Q99705). As to the kind of experiment: Displacement of [35S] 4-(1-(3,4-difluorophenyl)-2-(ethyl(3-(6-fluoro-3H-spiro[isobenzofuran-1,4'-piperidine]-1'-yl)propyl)amino)-2-oxoethyl)-3-oxopiperazine-1-sulfonic acid from human MCH1R. In general terms: In a radioligand displacement assay an active substance lowers the binding of a labelled ligand.

The target of data set [2] is Melanin-concentrating hormone receptor 1 (Mus musculus, UniProt Q8JZL2). As to the kind of experiment: Displacement of [35S] 4-(1-(3,4-difluorophenyl)-2-(ethyl(3-(6-fluoro-3H-spiro[isobenzofuran-1,4'-piperidine]-1'-yl)propyl)amino)-2-oxoethyl)-3-oxopiperazine-1-sulfonic acid from mouse MCH1R.
The target in data set [3] is Melanin-concentrating hormone receptor 2 (Homo sapiens, UniProt Q969V1). Description: Displacement of [35S] 4-(1-(3,4-difluorophenyl)-2-(ethyl(3-(6-fluoro-3H-spiro[isobenzofuran-1,4'-piperidine]-1'-yl)propyl)amino)-2-oxoethyl)-3-oxopiperazine-1-sulfonic acid from human MCH2R.
Data set [4] concerns the target T1, Melanin-concentrating hormone receptor 1. Description: Displacement of[125I]MCH from human MCH1R expressed in CHO cells. It counts as cell-based.
Data set [5] can be described thus: Lipophilicity, log D at pH 7.4. It is filed as physicochemical. The note with it: buffer.
In data set [6] the target is T1, Melanin-concentrating hormone receptor 1. Description: Binding affinity to human MCH1R expressed in CHO cells by scintillation counting per mg of protein. It is filed as cell-based.
Data set [7] addresses Melanin-concentrating hormone receptor 1 (Mus musculus) (UniProt Q8JZL2). Description: Binding affinity to MCH1R in wild type mouse coronal slice […] at 500 pM by radioactivity study. The conditions noted are these: tested as the 35S-labelled form.

Here are results for 9 compounds from ChEMBL document CHEMBL1152905, “Identification and characterization of a selective radioligand for melanin-concentrating hormone 1-receptor (MCH1R)” (Bioorg Med Chem Lett, 2009).

Calls of active or inactive are those of the source. The calls are words filed in the database; no cut-off is given here. Bridge positions count the residues as written; N and C are the ends. Peptide text beside a SMILES is read from it. * marks the point of attachment. X2 = NC(=O)CC[C@@H](CN[C@@H](Cc1ccc(O)c(I)c1)C(=O)O)N*; X1 = NC(=O)CC[C@@H](CN[C@@H](Cc1ccc(O)cc1)C(=O)O)N*

T1 sequence (Q99705 whole entry): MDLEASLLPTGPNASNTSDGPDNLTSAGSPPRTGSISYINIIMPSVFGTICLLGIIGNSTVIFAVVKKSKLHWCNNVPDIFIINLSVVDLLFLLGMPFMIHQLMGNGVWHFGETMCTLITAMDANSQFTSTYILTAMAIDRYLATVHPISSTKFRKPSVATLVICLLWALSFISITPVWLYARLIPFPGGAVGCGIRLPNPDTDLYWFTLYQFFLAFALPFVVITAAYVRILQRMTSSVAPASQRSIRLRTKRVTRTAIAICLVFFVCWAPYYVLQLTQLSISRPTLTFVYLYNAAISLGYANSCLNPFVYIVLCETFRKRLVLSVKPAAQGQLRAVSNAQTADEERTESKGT
Sequence of Melanin-concentrating hormone receptor 1 (Mus musculus, UniProt Q8JZL2) (Q8JZL2 whole entry): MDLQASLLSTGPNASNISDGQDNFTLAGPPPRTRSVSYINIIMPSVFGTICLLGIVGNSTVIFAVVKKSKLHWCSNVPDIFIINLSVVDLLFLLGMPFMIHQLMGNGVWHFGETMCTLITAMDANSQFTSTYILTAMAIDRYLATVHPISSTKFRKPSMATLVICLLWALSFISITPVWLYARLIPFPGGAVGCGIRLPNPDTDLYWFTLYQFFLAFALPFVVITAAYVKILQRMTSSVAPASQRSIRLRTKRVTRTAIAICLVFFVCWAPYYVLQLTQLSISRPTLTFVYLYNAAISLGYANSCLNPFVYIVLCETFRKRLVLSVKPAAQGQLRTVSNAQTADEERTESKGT
Sequence of Melanin-concentrating hormone receptor 2 (Q969V1 whole entry): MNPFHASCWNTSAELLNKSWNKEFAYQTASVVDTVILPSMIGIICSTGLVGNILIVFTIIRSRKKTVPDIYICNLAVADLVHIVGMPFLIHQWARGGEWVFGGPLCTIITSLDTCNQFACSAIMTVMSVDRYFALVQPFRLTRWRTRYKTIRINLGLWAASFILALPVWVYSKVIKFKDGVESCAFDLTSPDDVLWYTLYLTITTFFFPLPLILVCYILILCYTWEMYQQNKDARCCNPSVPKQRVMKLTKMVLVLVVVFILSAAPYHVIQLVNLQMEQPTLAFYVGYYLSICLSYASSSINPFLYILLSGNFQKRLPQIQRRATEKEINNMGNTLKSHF
Sequence of Melanin-concentrating hormone receptor 1 (Mus musculus) (Q8JZL2 whole entry): as the sequence (Q8JZL2 whole entry) above

One may read the Ki as the dissociation constant of the complex between target and ligand, obtained from inhibition or displacement. `CSCC[C@@H]1NC(=O)[C@@H](NC(=O)[C@H](CCCNC(=N)N)NC(=O)[C@H](CC(C)C)NC(=O)[C@H](CCSC)NC(=O)[C@H](CC(=O)O)NC(=O)[C@H](Cc2ccccc2)NC(=O)[C@@H](N)CC(=O)O)CSSC[C@@H](C(=O)N[C@@H](Cc2c[nH]c3ccccc23)C(=O)N[C@@H](CCC(N)=O)CN[C@@H](Cc2ccc(O)cc2)C(=O)O)NC(=O)[C@@H]2CCCN2C(=O)[C@H](CCCNC(=N)N)NC(=O)[C@H](Cc2ccccc2)NC(=O)[C@H](C(C)C)NC(=O)[C@H](CCCNC(=N)N)NC(=O)CNC(=O)[C@H](CC(C)C)NC1=O` (H-DFDMLRCMLGRVFRPCW-X1; disulfide 7-16): the Ki in data set [1] was 0.034 nM; in data set [2] it was 0.052 nM; in data set [3] it was 1.6 nM.
As usually defined, the IC50 is the concentration at which inhibition is half-maximal. Read a low IC50 as greater potency. Consider `CCN(CCCN1CCC2(CC1)OCc1ccc(F)cc12)C(=O)C(c1ccc(F)c(F)c1)N1CCNCC1=O` (centres undefined), for which the IC50 in data set [4] was determined as 0.87 nM.
A word on the logD: it is the decadic logarithm of the distribution of all forms, ionised or not, between an organic phase and buffer at a given pH. A low value points to a more hydrophilic compound. `CN(CCCN1CCC2(CC1)OCc1ccccc12)C(=O)C(c1ccc(F)c(F)c1)N1CCCC1=O` (centres undefined): the IC50 in data set [4] is 2.7 nM. Besides, in data set [5], the logD came out at 2.2.
For `CCN(CCCN1CCC2(CC1)OCc1ccc(F)cc12)C(=O)C(c1ccc(F)c(F)c1)N1CCN([35S](C)(=O)=O)CC1=O` (centres undefined), the Ki is 0.5 nM in data set [2] and greater than 9700 nM in data set [3].
`CCN(CCCN1CCC2(CC1)OCc1ccc(F)cc12)C(=O)C(c1ccc(F)c(F)c1)N1CCN(C(=O)OC(C)(C)C)CC1=O` (stereo in doubt; 5b) displayed a half-maximal inhibitory concentration (IC50) in data set [4] of 145 nM.
In the case of `CCN(CCCN1CCC2(CC1)OCc1ccc(F)cc12)C(=O)C(c1ccc(F)c(F)c1)N1CCCC1=O` (centres undefined), in data set [4], the IC50 stood at 0.71 nM.
`CCN(CCCN1CCC2(CC1)OCc1ccc(F)cc12)C(=O)C(c1ccc(F)c(F)c1)N1CCN(S(C)(=O)=O)CC1=O` (centres undefined): in data set [6] (tested as the 35S-labelled form), the Bmax stood at 23 pmol. Also, the outcome in data set [7] was Active.
On to `CCN(CCCN1CCC2(CC1)OCc1ccc(F)cc12)C(=O)C(c1ccc(F)c(F)c1)N1CCN(C(=O)OC(C)(C)C)CC1=O` (stereo in doubt; 5a), for which the IC50 in data set [4] came to 0.24 nM.
With `CSCC[C@@H]1NC(=O)[C@@H](NC(=O)[C@H](CCCNC(=N)N)NC(=O)[C@H](CC(C)C)NC(=O)[C@H](CCSC)NC(=O)[C@H](CC(=O)O)NC(=O)[C@H](Cc2ccccc2)NC(=O)[C@@H](N)CC(=O)O)CSSC[C@@H](C(=O)N[C@@H](Cc2c[nH]c3ccccc23)C(=O)N[C@@H](CCC(N)=O)CN[C@@H](Cc2ccc(O)c(I)c2)C(=O)O)NC(=O)[C@@H]2CCCN2C(=O)[C@H](CCCNC(=N)N)NC(=O)[C@H](Cc2ccccc2)NC(=O)[C@H](C(C)C)NC(=O)[C@H](CCCNC(=N)N)NC(=O)CNC(=O)[C@H](CC(C)C)NC1=O` (H-DFDMLRCMLGRVFRPCW-X2; disulfide 7-16), the Bmax in data set [6] (tested as the 125I-labelled form) turned out to be 24 pmol.
